Literature values in patent publication US20260234616A1, “CELL-PENETRATING PEPTIDES, CONJUGATES THEREOF, AND METHODS OF THEIR USE” (PepGen Inc., priority 2022, published 2026).

Tested on: dystrophin
Details: DMD patients; reported by the sponsor

eteplirsen
levels of dystrophin restoration in patients: approximately 1 % of normal
